Assay results: PubChem BioAssay (NCI)
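In this assay, cells in 96-well plates receive the compound at five concentrations for 48 hours. Endpoints are linearly interpolated between the surrounding concentrations. Definition used: TGI = concentration required for complete inhibition of growth.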

Legend:
Experiment in all cases: inhibition of tumour cell growth, NCI panel, 48 h
[1] = tested on: 786-0 renal
[2] = tested on: A498 renal
[3] = tested on: ACHN renal
[4] = tested on: BT-549 breast
[5] = tested on: CAKI-1 renal
[6] = tested on: CCRF-CEM leukemia
[7] = tested on: COLO 205 colon
[8] = tested on: DU-145 prostate
[9] = tested on: EKVX NSCLC
[10] = tested on: HCC-2998 colon
[11] = tested on: HCT-116 colon
[12] = tested on: HCT-15 colon
[13] = tested on: HL-60(TB) leukemia
[14] = tested on: HOP-62 NSCLC
[15] = tested on: HOP-92 NSCLC
[16] = tested on: HS 578T breast
[17] = tested on: HT29 colon
[18] = tested on: IGROV1 ovarian
[19] = tested on: K-562 leukemia
[20] = tested on: KM12 colon
[21] = tested on: LOX IMVI melanoma
[22] = tested on: M14 melanoma
[23] = tested on: MALME-3M melanoma
[24] = tested on: MCF7 breast
[25] = tested on: MDA-MB-231 breast
[26] = tested on: MDA-MB-435
[27] = tested on: MDA-N
[28] = tested on: MOLT-4 leukemia
[29] = tested on: NCI-H226 lung
[30] = tested on: NCI-H23 lung
[31] = tested on: NCI-H460 lung
[32] = tested on: NCI-H522 lung
[33] = tested on: NCI/ADR-RES ovarian
[34] = tested on: OVCAR-3 ovarian
[35] = tested on: OVCAR-4 ovarian
[36] = tested on: OVCAR-5 ovarian
[37] = tested on: OVCAR-8 ovarian
[38] = tested on: PC-3 prostate
[39] = tested on: RPMI-8226 leukemia
[40] = tested on: RXF 393 renal
[41] = tested on: SF-268 CNS
[42] = tested on: SF-295 CNS
[43] = tested on: SF-539 CNS
[44] = tested on: SK-MEL-2 melanoma
[45] = tested on: SK-MEL-28 melanoma
[46] = tested on: SK-MEL-5 melanoma
[47] = tested on: SK-OV-3 ovarian
[48] = tested on: SN12C renal
[49] = tested on: SNB-19 CNS
[50] = tested on: SNB-75 CNS
[51] = tested on: SR leukemia
[52] = tested on: SW-620 colon
[53] = tested on: T-47D breast
[54] = tested on: TK-10 renal
[55] = tested on: U251 CNS
[56] = tested on: UACC-257 melanoma
[57] = tested on: UACC-62 melanoma
[58] = tested on: UO-31 renal
[59] = tested on: A549 NSCLC
[60] = tested on: DLD-1 colon
[61] = tested on: DMS 114 small cell lung
[62] = tested on: DMS 273 small cell lung
[63] = tested on: HOP-18 NSCLC
[64] = tested on: LXFL 529 NSCLC
[65] = tested on: M19-MEL melanoma
[66] = tested on: KM20L2 colon
[67] = tested on: SNB-78 CNS

Measured: TGI

COc1ccc(OC)c(NS(=O)(=O)c2ccc3nc(C)n(NS(=O)(=O)c4cc(OC)ccc4OC)c(=O)c3c2)c1
62.7 µM: [28]
> 100 µM: [1] | [2] | [3] | [4] | [5] | [6] | [7] | [8] | [9] | [10] | [11] | [12] | [13] | [14] | [15] | [16] | [17] | [18] | [19] | [20] | [21] | [22] | [23] | [24] | [25] | [26] | [27] | [29] | [30] | [31] | [32] | [33] | [34] | [35] | [36] | [37] | [38] | [39] | [40] | [41] | [42] | [43] | [44] | [45] | [46] | [47] | [48] | [49] | [50] | [51] | [52] | [53] | [54] | [55] | [56] | [57] | [58]

C=C[C@@]1(O)CCCC2=C(C(=O)OCC)CC[C@]21C
> 100 µM: [1] | [59] | [3] | [6] | [7] | [60] | [61] | [62] | [9] | [10] | [12] | [13] | [63] | [15] | [17] | [18] | [19] | [20] | [64] | [22] | [65] | [23] | [28] | [29] | [30] | [31] | [32] | [34] | [36] | [37] | [39] | [40] | [41] | [42] | [43] | [44] | [45] | [46] | [47] | [48] | [49] | [51] | [52] | [54] | [55] | [56] | [58]

O=C(O)C(Cl)(c1ccccc1)c1ccccc1
> 100 µM: [1] | [2] | [59] | [3] | [4] | [5] | [6] | [7] | [8] | [9] | [10] | [11] | [12] | [13] | [14] | [15] | [16] | [17] | [18] | [19] | [20] | [21] | [22] | [23] | [24] | [25] | [26] | [27] | [28] | [29] | [30] | [31] | [32] | [33] | [34] | [35] | [36] | [37] | [38] | [39] | [40] | [41] | [42] | [43] | [44] | [45] | [46] | [47] | [48] | [49] | [50] | [51] | [52] | [53] | [54] | [55] | [56] | [57] | [58]

O=C1OC(O)C(Oc2c(Cl)cccc2Cl)=C1Cl (stereo not drawn)
43.5 µM: [47]
50.1 µM: [13]
73.2 µM: [9]
57 µM: [39]
41.9 µM: [15]
33.6 µM: [64]
54.1 µM: [20] | [51]
37.9 µM: [10] | [37]
27.5 µM: [46]
28.3 µM: [52]
35 µM: [48]
85.7 µM: [28]
42.4 µM: [63]
94.6 µM: [67]
26.8 µM: [55]
78.1 µM: [49]
32.1 µM: [60]
51.1 µM: [2]
34.7 µM: [59] | [14]
42.1 µM: [56]
46.2 µM: [18]
75.4 µM: [23]
54.6 µM: [50]
28.2 µM: [58]
32.9 µM: [66]
45.7 µM: [45]
29.2 µM: [31]
31 µM: [34]
34.2 µM: [44]
38.9 µM: [30]
32.3 µM: [43]
30.1 µM: [62]
33.2 µM: [22]
27.9 µM: [11]
46 µM: [36]
69.1 µM: [54]
24.7 µM: [57]
30.2 µM: [7]
48 µM: [5] | [19]
27.3 µM: [32]
23.9 µM: [40]
34.3 µM: [17]
31.3 µM: [41]
34 µM: [21]
32.2 µM: [1]
53 µM: [6]
42.3 µM: [3]
33.9 µM: [42]
29 µM: [12]
42.6 µM: [29]
